Experimental data reported in PubChem BioAssay AID1963972 (Molecular Pharmacology Branch, DTP, NCI, 2024).

Test system: 945468-187-T-J2-PDC spheroids viability
Experiment: Anticancer human tumor 945468-187-T-J2-PDC patient-derived rectal carcinoma cell line growth inhibition [PI3K]
Settings: spheroids with HUVEC and MSC; for IC50: curve of first compound; for viability, T/C: stronger effect = lower value
Outline: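 High-throughput combination screen: PI3K inhibitors crossed with targeted small molecules on complex spheroids of tumor cells, HUVEC and MSCs at 37 degrees C, 5% CO2. Top concentration was at or near clinical Cmax (otherwise 10 microM), with half-log decrements.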
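Also: spheroids exposed to compounds for seven days before reading.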

C#Cc1c(F)ccc2cc(O)cc(-c3ncc4c(N5CC6CCC(C5)N6)nc(OCC56CCCN5CC(F)C6)nc4c3F)c12 (configuration not stated) + CC(Nc1ccc2c(c1)OCCn1cc(N3C(=O)OCC3C(F)F)nc1-2)C(N)=O
IC50 (second compound 0.00316 µM): > 10 µM
IC50 (second compound 0.01 µM): > 10 µM
IC50 (second compound 0.0316 µM): > 10 µM
IC50 (second compound 0.1 µM): > 10 µM
IC50 (second compound 0.316 µM): > 10 µM
IC50 (second compound 1 µM): > 10 µM
viability, T/C (second compound 0.00316 µM, first compound 0.0316 µM): 103%
viability, T/C (second compound 0.00316 µM, first compound 0.1 µM): 86.9%
viability, T/C (second compound 0.00316 µM, first compound 0.316 µM): 87.3%
viability, T/C (second compound 0.00316 µM, first compound 1 µM): 96.7%
viability, T/C (second compound 0.00316 µM, first compound 3.16 µM): 94%
viability, T/C (second compound 0.00316 µM, first compound 10 µM): 96.5%
viability, T/C (second compound 0.01 µM, first compound 0.0316 µM): 75.3%
viability, T/C (second compound 0.01 µM, first compound 0.1 µM): 105%
viability, T/C (second compound 0.01 µM, first compound 0.316 µM): 81.5%
viability, T/C (second compound 0.01 µM, first compound 1 µM): 82.8%
viability, T/C (second compound 0.01 µM, first compound 3.16 µM): 103%
viability, T/C (second compound 0.01 µM, first compound 10 µM): 86.8%
viability, T/C (second compound 0.0316 µM, first compound 0.0316 µM): 94.5%
viability, T/C (second compound 0.0316 µM, first compound 0.1 µM): 85.7%
viability, T/C (second compound 0.0316 µM, first compound 0.316 µM): 79.7%
viability, T/C (second compound 0.0316 µM, first compound 1 µM): 88.1%
viability, T/C (second compound 0.0316 µM, first compound 3.16 µM): 107%
viability, T/C (second compound 0.0316 µM, first compound 10 µM): 103%
viability, T/C (second compound 0.1 µM, first compound 0.0316 µM): 82.6%
viability, T/C (second compound 0.1 µM, first compound 0.1 µM): 81.2%
viability, T/C (second compound 0.1 µM, first compound 0.316 µM): 88.7%
viability, T/C (second compound 0.1 µM, first compound 1 µM): 93.3%
viability, T/C (second compound 0.1 µM, first compound 3.16 µM): 108%
viability, T/C (second compound 0.1 µM, first compound 10 µM): 95.3%
viability, T/C (second compound 0.316 µM, first compound 0.0316 µM): 77%
viability, T/C (second compound 0.316 µM, first compound 0.1 µM): 70.7%
viability, T/C (second compound 0.316 µM, first compound 0.316 µM): 76.5%
viability, T/C (second compound 0.316 µM, first compound 1 µM): 107%
viability, T/C (second compound 0.316 µM, first compound 3.16 µM): 81.4%
viability, T/C (second compound 0.316 µM, first compound 10 µM): 74.4%
viability, T/C (second compound 1 µM, first compound 0.0316 µM): 72%
viability, T/C (second compound 1 µM, first compound 0.1 µM): 62.4%
viability, T/C (second compound 1 µM, first compound 0.316 µM): 67.1%
viability, T/C (second compound 1 µM, first compound 1 µM): 68.3%
viability, T/C (second compound 1 µM, first compound 3.16 µM): 75.3%
viability, T/C (second compound 1 µM, first compound 10 µM): 69.3%
